Laboratory results published in US20040086965A1, “Casein peptide fragments with growth-influencing activity on cell cultures” (priority 2000, published 2004).

Test system: IPLB-Sf-21 cells
Test: Determination of the biological activity of the peptides: cell count of serum-weaned IPLB-Sf-21 cultures after four days with peptide
Assay type: cell-based, Spodoptera frugiperda
Details: for Rel. yield: IPLB-Sf-21, TC100 medium, 4 days; for peptide concentration at which the maximum growth-promoting effect was achieved: serum-free TC100 medium
Protocol: IPLB-Sf-21 cells (ACC1 19, DSMZ in Braunschweig, Germany) were obtained from Dr. Victor Romanowski (Instituto de Bioquímica y Biología Molecular, Facultad de Ciencias Exactas, Universidad Nacional de la Plata, República Argentina) and maintained at 28° C. in TC-100 medium (Gibco/Life Technologies, Grand Island, N.Y., USA) containing 10% foetal calf serum (FCS, SIGMA, St. Louis, Mo., USA).
IPLB-Sf-21 cells were sown at a starting density of 5×10^4 cells in 1 ml of culture medium (TC-100+10% FCS) in the individual wells of 24-well culture plates. The plates were incubated at 27° C. for two days in a humidified chamber. During the following two days, the cultures were weaned off the serum additive by replacing the medium several times with pure TC100 medium and were then provided with the peptides or peptide fractions at various concentrations. Control cultures were cultivated in pure TC100 medium.
Four days later, the cells were harvested by being scraped off carefully. The cell count per culture well was determined by counting in a Neubauer chamber with an inverted microscope. The Neubauer chamber had two regions for counting. Each sample was counted three times in each of the two regions (six values per sample).

| Substance | Rel. yield (Decapeptide concentration 0.01 μg/ml, cell yield relative to cultures without FCS) | Rel. yield (Decapeptide concentration 0.1 μg/ml, cell yield relative to cultures without FCS) | Rel. yield (Decapeptide concentration 1 μg/ml, cell yield relative to cultures without FCS) | Rel. yield (Decapeptide concentration 10 μg/ml, cell yield relative to cultures without FCS) | Rel. yield (Decapeptide concentration 100 μg/ml, cell yield relative to cultures without FCS) | peptide concentration at which the maximum growth-promoting effect was achieved (IPLB-Sf-21 cells) [µg/mL] | effect of higher concentrations on cell growth (concentrations higher than 1 μg/ml, IPLB-Sf-21 cells) | Rel. yield (Tripeptide concentration 0.01 μg/ml, cell yield relative to cultures without peptide and without FCS) | Rel. yield (Tripeptide concentration 0.1 μg/ml, cell yield relative to cultures without peptide and without FCS) | Rel. yield (Tripeptide concentration 1 μg/ml, cell yield relative to cultures without peptide and without FCS) | Rel. yield (Tripeptide concentration 10 μg/ml, cell yield relative to cultures without peptide and without FCS) | Rel. yield (Tripeptide concentration 100 μg/ml, cell yield relative to cultures without peptide and without FCS) | concentrations resulting in growth inhibition (very high concentrations, IPLB-Sf-21 cells) [µg/mL] |
| --- | --- | --- | --- | --- | --- | --- | --- | --- | --- | --- | --- | --- | --- |
| Ac-HQPHQPLPPT-OH [Decapeptide] | 1.051 | 1.182 | 1.272 | 1.175 | 0.866 | 1 | growth inhibition | – | – | – | – | – | – |
| AC-HQP-OH [Tripeptide] | – | – | – | – | – | 0.1 | – | 1.251 | 1.345 | 1.101 | 1.030 | 0.826 | > 10 |
